Results reported in patent US20250082705A1, “COMPOSITION FOR IMPROVING, PREVENTING, OR TREATING SLEEP DISORDERS COMPRISING DENDROPANAX MORBIFERA EXTRACTS” (JEJU PANATEK Co., Ltd., priority 2023, published 2025).

Experiments:
[1] = ABTS radical scavenging assay; format: biochemical; conditions: mean ± standard deviation
Method: (§1) The antioxidant activity of the Dendropanax morbifera ethanol extract was analyzed using an ABTS (2,2′-azino-bis (3-ethylbenzothiazoline-6-sulfonic acid)) assay and a DPPH (1,1-diphenyl-2-picrylhydrazyl) assay. As the experimental result, the concentration of a sample that appeared when the absorbance decreased by 50% was represented as IC50, and ascorbic acid was used as a standard material.
Specifically, in the ABTS method, the ABTS solution was mixed with the extract at a ratio of 20:1 and the absorbance was measured. Light was blocked at room temperature and the results were confirmed at 414 nm after 60 minutes of reaction. The ABTS solution was obtained by dissolving 7.4 mM ABTS and 2.6 mM potassium persulfate in distilled water and stored at 4° C. for 1 day, and adjusted so that a blank value was 1.4 to 1.5.

[2] = DPPH radical scavenging assay; format: biochemical; conditions: mean ± standard deviation
Method: as §1
In the DPPH method, the absorbance was measured by mixing a
DPPH·methanol solution with the sample in a 1:1 ratio. Light was blocked at room temperature and the results were confirmed at 520 nm after 5 minutes of reaction. The DPPH·methanol solution was adjusted so that the blank value was 1.7 to 1.8.

O=C1O[C@H]([C@@H](O)CO)C(O)=C1O [Ascorbic acid]
ABTS IC50 [1]: 71 ± 2 µg/mL
DPPH IC50 [2]: 25 ± 1 µg/mL
